PubChem BioAssay (NCI)
Values joined by “and” are separate entries in the source; they are usually repeats but may differ in a detail not shown here. Equal values may be shown once.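 Interpolation was linear, between the two tested concentrations surrounding the appropriate level; five concentrations were tested over 48 hours in 96-well plates. At the GI50, growth is halved. At the TGI there is no net growth.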

Tests used:
Experiment in all cases: NCI anticancer screen, dose series, 48 h
SF-268 CNS = tested on: SF-268 CNS
MALME-3M melanoma = tested on: MALME-3M melanoma
RPMI-8226 leukemia = tested on: RPMI-8226 leukemia
CAKI-1 renal = tested on: CAKI-1 renal
NCI-H226 lung = tested on: NCI-H226 lung
MOLT-4 leukemia = tested on: MOLT-4 leukemia
OVCAR-5 ovarian = tested on: OVCAR-5 ovarian
SF-539 CNS = tested on: SF-539 CNS
HCT-116 colon = tested on: HCT-116 colon
UO-31 renal = tested on: UO-31 renal

SMILES | GI50 (SF-268 CNS) | TGI (SF-268 CNS) | GI50 (MALME-3M melanoma) | TGI (MALME-3M melanoma) | GI50 (RPMI-8226 leukemia) | TGI (RPMI-8226 leukemia) | GI50 (CAKI-1 renal) | TGI (CAKI-1 renal) | GI50 (NCI-H226 lung) | TGI (NCI-H226 lung) | GI50 (MOLT-4 leukemia) | TGI (MOLT-4 leukemia) | GI50 (OVCAR-5 ovarian) | TGI (OVCAR-5 ovarian) | GI50 (SF-539 CNS) | TGI (SF-539 CNS) | GI50 (HCT-116 colon) | TGI (HCT-116 colon) | GI50 (UO-31 renal) | TGI (UO-31 renal)
CS(=O)(=O)Nc1ccc(Nc2c3ccccc3nc3cc(Cl)ccc23)cc1 | 2.57 µM | 19.6 µM | 1.96 µM | 12.3 µM | 2.56 µM | 25.6 µM | 0.397 µM | 8.68 µM | 0.672 µM | 6.17 µM | 0.214 µM | 16.2 µM | 4.99 µM | 22.3 µM | 1.18 µM | 13.5 µM | 0.84 µM | 13.1 µM | 0.58 µM | 8.96 µM
COc1cccc(OC)c1/C=N\N1C(=O)c2ccccc2C1=O | – | > 100 µM | – | > 100 µM | – | > 100 µM | – | > 100 µM | – | > 100 µM | – | > 100 µM | – | > 100 µM | – | 52.4 µM | – | 87.6 µM | – | > 100 µM
COc1ccc(-c2ccc(/C=N/n3c(COc4ccc(Cl)c(C)c4)nn(CN4CCOCC4)c3=S)o2)c([N+](=O)[O-])c1 | 33.8 µM | > 100 µM | 17.9 µM | 43.1 µM | 12.5 µM | 34.9 µM | 23.6 µM | 57.1 µM | > 100 µM | > 100 µM | 21.8 µM | 70.1 µM | 33.2 µM | > 100 µM | 22 µM | 53.9 µM | 17.6 µM | 34.3 µM | 28.8 µM | > 100 µM
OCCn1c(-c2ccncc2)c(-c2ccc(F)cc2)c2ncccc21 | > 25 µM | > 25 µM | > 25 µM | > 25 µM | > 25 µM | > 25 µM | > 25 µM | > 25 µM | > 25 µM | > 25 µM | > 25 µM | > 25 µM | > 25 µM | > 25 µM | > 25 µM | > 25 µM | > 25 µM | > 25 µM | 12.5 µM | > 25 µM
CN(C)C(=O)c1cc2cnc(Nc3ccc(N4CCNCC4)cn3)nc2n1C1CCCC1 | 14.1 µM | 38.3 µM | 5.4 µM | 22.3 µM | 2.62 µM | 30 µM | 20 µM | > 100 µM | 25.2 µM | > 100 µM | 1.8 µM | 34.5 µM | 1.45 µM | 73.1 µM | 15.7 µM | 30.8 µM | 4.25 µM | 48.7 µM | 4.56 µM | 62.1 µM
CCOC(=O)c1c(/C=N\Nc2ccccc2)nc2ccccc2c1-c1ccccc1 | – | > 100 µM | – | 90.5 µM | – | 83.8 µM | – | > 100 µM | – | > 100 µM | – | 68.8 µM | – | > 100 µM | – | > 100 µM | – | > 100 µM | – | 98.7 µM
COc1cc(/C=C/C(=O)c2c(-c3ccc(Cl)cc3)nc3sc(C)nn23)cc(OC)c1OC | 24.6 µM | > 100 µM | 25.6 µM | > 100 µM | 1.82 µM | 5.78 µM | 54 µM | > 100 µM | 23.7 µM | > 100 µM | 7.59 µM | > 100 µM | > 100 µM | > 100 µM | > 100 µM | > 100 µM | 15.7 µM | > 100 µM | 7.27 µM | > 100 µM
COc1ccc(C[C@H](N)C(=O)N[C@@H]2[C@@H](CO)OC(n3cnc4c(N(C)C)ncnc43)[C@@H]2O)cc1 (some centres not stated) | – | 1.18 µM | 0.637 µM | 1.39 µM | 0.292 µM | 2.04 µM | 4.44 µM | 16.6 µM | 0.497 µM | 1.27 µM | 0.275 µM | 1.77 µM | 1.14 µM | 2.94 µM | 0.435 µM | 1.95 µM | 0.152 µM | 0.628 µM | 1.56 µM | 6.57 µM
CC(C)(CCc1nc2ccccc2[nH]1)C(=O)O | – | > 100 µM | – | > 100 µM | – | > 100 µM | – | > 100 µM | – | > 100 µM | – | > 100 µM | – | > 100 µM | – | > 100 µM | – | > 100 µM | – | > 100 µM
CCc1c[nH]c2ncnc(N3CC[C@](N)(CNC(=O)c4ccc(F)cc4F)C3)c12 | 33.3 µM | > 100 µM | 3.4 µM | 39.5 µM | 20.8 µM | > 100 µM | 8.62 µM | > 63.6 µM | 5.75 µM | > 77.7 µM | 0.439 µM | 46.2 µM | 21.7 µM | > 100 µM | 0.381 µM | 29.4 µM | 8.91 µM | > 100 µM | 1.52 µM | 47.6 µM
O=C(c1ccccc1)c1ccc(N2C(=O)C3C4c5ccccc5C(/C=C/C(=O)c5ccccn5)(c5ccccc54)C3C2=O)cc1 (configuration not stated) | > 23.1 µM | > 100 µM | 2.33 µM | 6.48 µM | 2.49 µM | 53.3 µM | 8.82 µM | > 100 µM | 2.06 µM | 4.48 µM | 2.29 µM | > 100 µM | 2 µM | 5.97 µM | 2.07 µM | 4.91 µM | 1.66 µM | 4.02 µM | 1.45 µM | 2.92 µM
CCOC(=O)C1=C(O)c2c(OC)ccc(OC)c2C(=O)C1=O | – | > 100 µM | – | > 100 µM | – | > 100 µM | – | > 100 µM | – | > 100 µM | – | > 100 µM | – | > 100 µM | – | > 100 µM | – | > 100 µM | – | > 100 µM
Oc1ccc(/C=N/Nc2nnc(N/N=C/c3ccc(O)cc3O)c3ccccc23)c(O)c1 | 0.353 µM | – | 0.633 µM | 4.28 µM | 0.345 µM | 0.533 µM and 1.77 µM | 0.334 µM | 0.671 µM | 1.92 µM | 6.98 µM | 0.432 µM | – | 1.36 µM | 15.8 µM | – | 0.714 µM and 0.755 µM | 0.348 µM | 2.16 µM | 0.282 µM | 3.92 µM
O=c1cccccc1[O-].O=c1cccccc1[O-].O=c1cccccc1[O-].[Dy+3] | – | > 100 µM | – | > 100 µM | – | 76.2 µM | – | > 100 µM | – | > 100 µM | – | 46.2 µM | – | > 100 µM | 17.9 µM | 78 µM | – | 41.4 µM | – | > 100 µM
Cn1ncc2c(c1=O)Nc1ccccc1S2(=O)=O | – | > 100 µM | – | > 100 µM | – | 97.6 µM | – | > 100 µM | – | > 100 µM | – | > 100 µM | – | > 100 µM | – | 49 µM | – | > 100 µM | – | > 100 µM
